Experimental data reported in patent publication US20230406812A1, “NOVEL AMINOAROMATIC COMPOUND OR PHARMACEUTICALLY ACCEPTABLE SALT THEREOF, AND PHARMACEUTICAL COMPOSITION FOR PREVENTING OR TREATING NEURODEGENERATIVE DISEASES COMPRISING SAME AS ACTIVE INGREDIENT” (INSTITUTE FOR BASIC SCIENCE, priority 2020, published 2023).
pEC50: −log10 of the molar value.

Legend:
[1] = Blood brain barrier (BBB) permeability analysis (PAMPA); format: in vitro ADME
Protocol: Based on J Med Chem. 2001 Mar. 15; 44 (6):923-30., an artificial blood brain barrier (BBB) was produced by a parallel artificial membrane permeability assay (PAMPA), and the permeability of the drug was assessed.

[2] = test system: APP/PS1 mouse; assay: Passive avoidance test (PAT) I; format: in vivo; details: 3 mg/kg/day IP for 16 days
Protocol: A passive avoidance test is an experiment to check the memory of animals, in which a weak electric stimulation was given in a dark room and it was assessed whether the animal remembered the electrical stimulation.
Since mice preferred a dark room, they have a tendency to move quickly to a dark room when they are in a bright room. […] A time to move from a bright room to a dark room (latency to dark room, sec) was measured, thereby measuring memory of a combination of the electrical stimulation and the dark room. An APP/PS1 mouse which is used as an Alzheimer's animal model was used to perform the passive avoidance test (FIG. 4). A wild type (WT) mouse was used as a control group.
(§1) On the first day of PAT, as an acquisition session, the mouse was allowed to stay in a bright room, and after a certain time, a dark room was opened and a time for the mouse to enter the dark room was measured. When the mouse entered the dark room, an electrical shock (0.5 mA, 2 sec) was given by a foothold. On the second day, as a retrieval session, the mouse was placed in a bright room, and a time for the mouse to enter a dark room was measured. At this time, the door of the dark room was opened first.
The APP/PS1 dementia mouse was intraperitoneally injected with the aminoaromatic compound of the present invention (KDS12008 (Example 1), KDS12017 (Example 16), or KDS12025 (Example 21)) (KDS12008 (Example 1) 30 mg/kg/day (30 mpk); KDS12017 (Example 16) 30 mg/kg/day (30 mpk); KDS12025 (Example 21) 3 mg/kg/day (3 mpk)) for 16 days (intraperitoneal injection, IP).

[3] = target: hemoglobin (Hb) (Homo sapiens, UniProt P68871+P69905); assay: Hydrogen peroxide scavenging ability with hemoglobin (Amplex Red H2O2 assay); format: biochemical; details: 10 μM H2O2, 80 μg/ml hemoglobin, 37° C. about 30 minutes
Protocol: Amplex Red is a means which turns into a fluorescent substance called resorufin when horse radish peroxidase (HRP) and H2O2 exist together and allows measurement of changes in H2O2, that is, H2O2 assay. […] The experiment was performed by adding hemoglobin instead of HRP to the H2O2 assay by Amplex Red (FIG. 1). The final concentration of each substance was 10 μM of H2O2 and 80 μg/ml of hemoglobin, and the aminoaromatic compound of the present invention was treated by concentration. After the reaction at 37° C. for about 30 minutes as such, fluorescence (excitation: 540 nm, emission: 580 nm) was measured by a microplate reader. At this time, it can be said that fluorescence is proportional to the amount of H2O2. Normalization was performed for each concentration based on a fluorescence value without a drug, and a value at which the fluorescence value was 50%, that is, a half maximal effective concentration (EC50) was determined by a program through statistical processing. The results are shown in the following Table 2, and AAD-2004 was used as a control group.

[4] = test system: APP/PS1 mouse hippocampus astrocytes (GFAP); assay: Immunohistochemistry (IHC) I of brain tissue, GFAP; format: in vivo; details: 3 mg/kg/day IP for 16 days
Protocol: (§2) The brain of the Alzheimer's animal model of Experimental Example 3 was fixed with formaldehyde, and sliced into a small thickness. The amount of cells or specific protein in the sliced brain was measured with an image by histochemical staining. In the present experimental example, an antibody labeling an astrocyte was used to measure a change in astrocytes related to dementia. The results are illustrated in FIG. 5. That is, in the present experimental example, the hippocampus of the brain was histologically stained and a change in astrocytes around dementia substance amyloid beta was observed. Glial fibrillary acidic protein (GFAP) refers to astrocytes staining, 4′,6-diamidino-2-phenylindole (DAPI) marked cell nuclei and amyloid beta substance.

[5] = test system: APP/PS1+GiD Alzheimer's model mouse (APP+DTR); assay: Novel place recognition experiment; format: in vivo; details: 3 mg/kg/day i.p.
Protocol: The cognitive function related to hippocampus was assessed by a novel place recognition experiment to confirm the cognitive impairment and recovery. The same objects were put for a certain period of time for interaction, and after one hour, the position of only one object was changed. When having a normal cognitive function, a past memory is maintained to grow interest in a new object, but when having cognitive impairment, a new place is not determined. At this time, as an animal model, an APP/PS1+GiD Alzheimer's mode mouse which is a more closely developed model mouse to the phenomenon shown in the Alzheimer's dementia patient was used. The APP/PS1+GiD Alzheimer's model mouse was produced referring to Nature Neuroscience 23, 1555-1566 (2020).
In the present experiment, APP/PS1+GiD was produced by injecting AAV-GFAP104-DTR-GFP virus into the hippocampus of the APP/PS1 mouse, and hereinafter, is referred to as “APP+DTR”. In addition, the product obtained by injecting AAV-GFAP104-GFP virus into the hippocampus of the APP/PS1 mouse was referred to as “APP+GFP”. In addition, APP+DTR to which the aminoaromatic compound of the present invention, KDS12025 (Example 21) was administered was referred to as “APP+DTR+KDS12025”. […]

[6] = test system: WT mouse (C57BL/6 mouse); assay: Single toxicity assessment (lethal dose 50, LD50); format: in vivo
Protocol: The aminoaromatic compound of the present invention, KDS12008 (Example 1), KDS12017 (Example 16), or KDS12025 (Example 21) was intraperitoneally injected at a single dose of 100, 300, and 1000 mg/kg, respectively, into a WT mouse at about 8 weeks of age (C57BL/6 mouse), and it was assessed whether the animal was dead.

[7] = test system: APP/PS1 mouse hippocampus astrocytes (GFAP); assay: Immunohistochemistry (IHC) II of brain tissue; format: in vivo
Protocol: as §2
The Alzheimer's animal model of Experimental Example 5 was used to perform histochemical staining of the brain tissue in the same manner as in Experimental Example 4, and the results are shown in FIG. 7.

[8] = test system: APP/PS1+GiD Alzheimer's model mouse (APP+DTR); assay: Passive avoidance test (PAT) in APP/PS1+GiD mouse; format: in vivo
Protocol: In the present experiment, APP/PS1+GiD was produced by injecting AAV-GFAP104-DTR-GFP virus into the hippocampus of the APP/PS1 mouse, and hereinafter, is referred to as “APP+DTR”. In addition, the product obtained by injecting AAV-GFAP104-GFP virus into the hippocampus of the APP/PS1 mouse was referred to as “APP+GFP”. In addition, APP+DTR to which the aminoaromatic compound of the present invention, KDS12025 (Example 21) was administered was referred to as “APP+DTR+KDS12025”. In addition, as the WT mouse, APP/PS1 and littermate were used, and the product obtained by injecting AAV-GFAP104-GFP virus into the hippocampus of the WT mouse was referred to as “WT+GFP” and the product obtained by injecting AAV-GFAP104-DTR-GFP virus into the hippocampus of the WT mouse was referred to as “WT+DTR”.
In addition, as a result of PAT, the normal mouse (WT+GFP) remembered the dark room where it was given an electrical stimulation well and took a long time to enter the dark room.

[9] = test system: APP/PS1 mouse; assay: Passive avoidance test (PAT) II; format: in vivo
Protocol: as §1
3 mg/kg/day (3 mpk) and 10 mg/kg/day (10 mpk) of the aminoaromatic compound of the present invention, KDS12025 (Example 21) was intraperitoneally injected into the APP/PS1 mouse which is used as an Alzheimer's animal model for one week, and the passive avoidance test was performed in the same manner as in Experimental Example 3. The results are illustrated in FIG. 6.

[10] = test system: APP/PS1 mouse hippocampus cells; assay: Electrophysiology experiment (tonic GABA); format: in vivo; details: 3 mg/kg/day or 10 mg/kg/day
Protocol: The Alzheimer's animal model of Experimental Example 5 was used to confirm the influence of astrocytes and the mechanism causing memory impairment in dementia through an electrophysiology experiment.
Therefore, in the present experimental example, each of the APP/PS1 mouse as the Alzheimer's animal model, the APP/PS1 mouse treated with 3 mg/kg/day or 10 mg/kg/day, respectively, of the aminoaromatic compound of the present invention, KDS12025 (Example 21), and a healthy normal mouse (wild type, WT) was anesthetized, and brain tissues were obtained therefrom to measure an electrical signal of living hippocampus cells. Thus, the tonic GABA which inhibits neurotransmission in a brain cell was measured. The results are illustrated in FIG. 8.

Chain of hemoglobin (Hb) (P69905 2-142 limits assumed): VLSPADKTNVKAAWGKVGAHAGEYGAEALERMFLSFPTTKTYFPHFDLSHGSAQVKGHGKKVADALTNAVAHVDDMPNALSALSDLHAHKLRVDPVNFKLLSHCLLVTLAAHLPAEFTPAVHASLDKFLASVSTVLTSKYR
Chain of hemoglobin (Hb) (P68871 2-147 limits assumed): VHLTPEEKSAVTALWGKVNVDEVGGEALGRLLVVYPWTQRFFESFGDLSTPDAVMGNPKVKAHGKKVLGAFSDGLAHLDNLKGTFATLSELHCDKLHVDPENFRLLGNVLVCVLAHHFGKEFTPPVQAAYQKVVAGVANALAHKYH

With `CNc1ccc(NCCc2ccccc2OC)cc1` [Example 21] the Papp at 50 μM [1] was 67.4 ×10⁻⁶ cm/s, the “latency to dark room (impaired memory)” value [2] was “significantly recovered” and the pEC50 [3] was 7.22. For the same compound, the “GFAP (astrocytes) in hippocampus” value [4] was “decreased GFAP”, the “cognitive function (novel place recognition)” value [5] was “recovered cognitive function” and the animals died ([6]; C57BL/6, mouse, in vivo, ip, 300 mg/kg) was “about 50%”. The “toxicity (death of animals)” value ([6]; mouse, in vivo, ip, 1000 mg/kg) was “showed toxicity”, the lethal toxicity ([6]; single dose 100 mg/kg IP, C57BL/6 mouse) was “lethal toxicity was not shown” and the “astrocytes (GFAP staining) in hippocampus” value ([7]; 3 mg/kg/day IP for one week) was “astrocytes returned to a healthy normal level”. The “astrocytes (GFAP staining) in hippocampus” value ([7]; 10 mg/kg/day IP for one week) was “astrocytes returned to a healthy normal level”, the “memory in passive avoidance test” value [8] was “recovered memory” and the “memory in passive avoidance test” value ([9]; 3 mg/kg/day IP for one week) was “maintained its memory similarly to the healthy normal mouse”. For the same compound, the “memory in passive avoidance test” value ([9]; 10 mg/kg/day IP for one week) was “maintained its memory similarly to the healthy normal mouse” and the “tonic GABA” value [10] was “decreased tonic GABA”.
